Source: patent US5783562A, “Luteinizing hormone releasing hormone analogs” (Asta Medica Aktiengesellschaft, priority 1990, dated 1998)
Read-outs that look alike come from different tables or passages of the source. Non-standard residues stand in square brackets, D forms with d. Residues, ends and D or L forms follow the SMILES beside them. dPhe(4-Cl) = N[C@H](Cc1ccc(Cl)cc1)C(=O)O; d2Nal = N[C@H](Cc1ccc2ccccc2c1)C(=O)O; d3Pal = N[C@H](Cc1cccnc1)C(=O)O

Legend:
mast cells [1] = format: cell-based, rat
Method: The healthy, adult, male SD rats (BW 200-250 g) used in this experiment were housed in the same conditions as for the adult, female SD rats above. After anesthetizing with CO2, the peritoneal cavity was washed with 50 ml of PIPES AC medium containing 20 units of heparin. Following centrifugation at 200×g for 8 min. at 4° C., the cells were washed again and resuspended to a concentration of 8-to-24×10^5 total leukocytes/ml in […]. This suspension contained approximately 5-10% mast cells. Washed cells were used immediately after collection and were prewarmed for 5 min. at 37° C. prior to pipetting 0.3 ml aliquots into polystyrene tubes containing 0.3 ml of diluted peptide. The mixtures were incubated for 15 min. at 37° C., and the reaction was stopped by centrifugation at 400×g for 15 min. at 4° C. The supernatants were assayed for histamine content by manual fluorometric assay method after successful extraction with n-butanol and n-heptane. The histamine content can be obtained from the histamine standard curve (see below). The percentage of histamine release can be calculated from the following equation: [formula] where E is the fluorometric reading of the experimental sample, B is the fluorometric reading of samples with cells and buffer only, and C is the fluorometric reading of "complete" samples (cells treated with HCIO4). The standard curve can be obtained by plotting the OD values on a fluorometer at 350 nm/450 nm (activation/fluorescent) against the concentrations of serially diluted solutions of accurately weighed histamine hydrochloride. The relative parameter (r) of the histamine standard curve can be 0.9998, and the lowest detectable concentration of histamine is 0.5 ng/ml. The ED50 value of a peptide can be determined from the dose response curves obtained by plotting the histamine release versus the peptide concentration on semilogarithmic paper. All peptide samples should be tested with mast cells from a minimum of 3 different rats.

[2] = Water-solubility / hydrophilicity of the peptides; format: physicochemical
mast cells [3] = settings: neuropeptide SP, background; cited from earlier work
rat ovulation = experiment: Corbin's rat antiovulation method (antiovulatory activity, AOA); format: in vivo; settings: in saline, at noon of proestrus, female SD rats
Method: Corbin's rat antiovulation method was used in the present invention. Healthy, adult, female SD rats (BW 200-250 g) were used in this experiment. All animals were maintained at 22°-24° C. and on a 14 hr./10 hr. (light/dark) schedule. They were given standard food and water ad libitum. Only those rats showing at least two consecutive 4-day estrous cycles in vaginal smear examination could be used in this experiment. The rats were given peptides (LHRH antagonists) at noon of proestrus with different doses in saline solution. The rats were sacrificed the next day, and both portions of their oviducts were examined using a dissecting microscope in order to determine the ovum number. The rats were divided into several groups according to the dosing, and each group consisted of about 10 rats. The control group, which was given an equivalent amount of saline, consisted of 9-10 rats. […] Evaluation of Histamine Releasing Activity

For `CC(=O)N[C@H](Cc1ccc2ccccc2c1)C(=O)N[C@H](Cc1ccc(Cl)cc1)C(=O)N[C@H](Cc1ccc(O)cc1)C(=O)N[C@@H](CO)C(=O)N[C@@H](CCCCN)C(=O)N[C@H](Cc1cccnc1)C(=O)N[C@@H](CC(C)C)C(=O)N[C@@H](CCCNC(=N)N)C(=O)N1CCC[C@H]1C(=O)N[C@H](C)C(N)=O` [Compound 4] (Ac-[d2Nal][dPhe(4-Cl)][dY]SK[d3Pal]LRP[dA]-NH2), which “HRA (μg/ml) ED50 ± SEM” value (mast cells [1]) is on record?
Its value is 6.1 µg/mL.

With `CC(=O)N[C@H](Cc1ccc2ccccc2c1)C(=O)N[C@H](Cc1ccc(Cl)cc1)C(=O)N[C@H](Cc1cccnc1)C(=O)N[C@@H](CO)C(=O)N[C@@H](Cc1ccc(O)cc1)C(=O)N[C@H](Cc1cccnc1)C(=O)N[C@@H](CC(C)C)C(=O)N[C@@H](CCCNC(=N)N)C(=O)N1CCC[C@H]1C(=O)N[C@H](C)C(N)=O` [III, NAc-D2Nal^1 -DpClPhe^2 -D3Pal^3 -Ser^4 -Tyr^5 -D3Pal^6 -Leu^7 -Arg^8 -Pro^9 -DAla^10 -NH2] (Ac-[d2Nal][dPhe(4-Cl)][d3Pal]SY[d3Pal]LRP[dA]-NH2) as the compound, how does the “HRA (μg/ml) ED50 ± SEM” value (mast cells [1]) read?
The value was 9.8 µg/mL.

With `CC(=O)N[C@H](Cc1ccc2ccccc2c1)C(=O)N[C@H](Cc1ccc(Cl)cc1)C(=O)N[C@H](Cc1cccnc1)C(=O)N[C@@H](CO)C(=O)N[C@@H](CCCNC(=N)N)C(=O)N[C@H](Cc1cccnc1)C(=O)N[C@@H](CC(C)C)C(=O)N[C@@H](CCCNC(=N)N)C(=O)N1CCC[C@H]1C(=O)N[C@H](C)C(N)=O` [IV, NAc-D2Nal^1 -DpClPhe^2 -D3Pal^3 -Ser^4 -Arg^5 -D3Pal^6 -Leu^7 -Arg^8 -Pro^9 -DAla^10 -NH2] (Ac-[d2Nal][dPhe(4-Cl)][d3Pal]SR[d3Pal]LRP[dA]-NH2) as the compound, how does the hydrophilicity [2] read?
The hydrophilicity was “very strong hydrophilicity”.

Which “ED50 for HRA” value (mast cells [3]) does the source give for “Arg^1 -Pro^2 -Lys^3 -Pro^4 -Gln^5 -Gln^6 -Phe^7 -Phe^8 -Gly^9 -Leu^10 -Met^11 -NH2 [neuropeptide SP]” here?
Its value is 5 to 15 µM.

Which “% AOA/μg 0.25” value (rat ovulation; 0.25 μg) does the source give for “NAc-D2Nal^1 -DpClPhe^2 -DPhe^3 Ser^4 -Arg^5 -D3Pal^6 -Leu^7 -Arg^8 -Pro^9 -DAla^10 -NH2 [V]” here?
The value was 29%.

What about the “% AOA/μg 0.5” value (rat ovulation; 0.5 μg) of the same compound?
The value was 60%.

What about the “% AOA/μg 1.0” value (rat ovulation; 1.0 μg) of the same compound?
Its value is 100%.

And the “HRA (μg/ml) ED50 ± SEM” value (mast cells [1]; in vitro histamine release, rat peritoneal mast cells)?
The value was 7.4 µg/mL.
